Assay results reported in ChEMBL document CHEMBL1201862, “PubChem BioAssay data set” (2004).
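These data come from cells grown in 96-well plates and exposed to compound for 48 hours at five concentrations. At the GI50, growth is halved.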 Active and inactive are the calls of the source. No stated cut-off is given here; in the data, active = GI50 up to about 1.1 µM and inactive = higher.

Legend:
Assay in all cases: NCI anticancer screen, dose series, 48 h
[1] = system: HCT-116
[2] = system: SF-295
[3] = system: TK-10
[4] = system: T47D
[5] = system: PC-3
[6] = system: NCI-H522
[7] = system: UO-31
[8] = system: MDA-MB-231
[9] = system: HCT-15
[10] = system: UACC-257
[11] = system: SN12C
[12] = system: NCI-H23
[13] = system: SK-OV-3
[14] = system: SF-268
[15] = system: SR
[16] = system: HCC 2998
[17] = system: SNB-75
[18] = system: NCI-H460
[19] = system: OVCAR-8
[20] = system: CCRF-CEM
[21] = system: MOLT-4
[22] = system: HT-29
[23] = system: A498
[24] = system: LOX IMVI
[25] = system: MDA-N
[26] = system: MDA-MB-435
[27] = system: SK-MEL-2
[28] = system: ACHN
[29] = system: SK-MEL-28
[30] = system: BT-549
[31] = system: M14
[32] = system: OVCAR-5
[33] = system: COLO 205
[34] = system: K562
[35] = system: HOP-92
[36] = system: SNB-19
[37] = system: UACC-62
[38] = system: SW-620
[39] = system: OVCAR-3
[40] = system: CAKI-1
[41] = system: RPMI-8226
[42] = system: U-251
[43] = system: NCI/ADR-RES
[44] = system: IGROV-1
[45] = system: MCF7
[46] = system: SK-MEL-5
[47] = system: DU-145
[48] = system: OVCAR-4
[49] = system: 786-0
[50] = system: KM12
[51] = system: EKVX
[52] = system: NCI-H226
[53] = system: Hs-578T
[54] = system: Malme-3M
[55] = system: SF-539
[56] = system: RXF 393
[57] = system: A549
[58] = system: HOP-62
[59] = system: HL-60

Cc1nc2ccccc2cc1C[N+]12CN3CN(CN(C3)C1)C2
GI50 [1]: 5.21 µM (inactive) | GI50 [2]: 22.9 µM (inactive) | GI50 [3]: 24.9 µM (inactive) | GI50 [4]: 18.7 µM (inactive) | GI50 [5]: 10.8 µM (inactive) | GI50 [6]: 18.9 µM (inactive) | GI50 [7]: 23.6 µM (inactive) | GI50 [8]: 16.4 µM (inactive) | GI50 [9]: 15.2 µM | GI50 [10]: 18.4 µM (inactive) | GI50 [11]: 18 µM (inactive) | GI50 [12]: 17.5 µM (inactive) | GI50 [13]: 32.7 µM (inactive) | GI50 [14]: 22.7 µM (inactive) | GI50 [15]: 19 µM (inactive) | GI50 [16]: 17.1 µM (inactive) | GI50 [17]: 17.9 µM (inactive) | GI50 [18]: 18.2 µM (inactive) | GI50 [19]: 30.3 µM (inactive) | GI50 [20]: 0.962 µM (active) | GI50 [21]: 34 µM (inactive) | GI50 [22]: 15.7 µM (inactive) | GI50 [23]: 22.8 µM (inactive) | GI50 [24]: 14.7 µM (inactive) | GI50 [25]: 21.8 µM (inactive) | GI50 [26]: 22.2 µM (inactive) | GI50 [27]: 18.6 µM (inactive) | GI50 [28]: 17.1 µM (inactive) | GI50 [29]: 18.7 µM (inactive) | GI50 [30]: 19.3 µM (inactive) | GI50 [31]: 18.5 µM (inactive) | GI50 [32]: 23.8 µM (inactive) | GI50 [33]: 14.1 µM (inactive) | GI50 [34]: 29.2 µM (inactive) | GI50 [35]: 45.2 µM (inactive) | GI50 [36]: 23.8 µM (inactive) | GI50 [37]: 17.2 µM (inactive) | GI50 [38]: 5.35 µM (inactive) | GI50 [39]: 28.1 µM (inactive) | GI50 [40]: 27.5 µM (inactive) | GI50 [41]: 3.4 µM (inactive) | GI50 [42]: 12.1 µM (inactive) | GI50 [43]: 22.4 µM (inactive) | GI50 [44]: 31.4 µM (inactive) | GI50 [45]: 4.29 µM (inactive) | GI50 [46]: 18.4 µM (inactive) | GI50 [47]: 26.2 µM (inactive) | GI50 [48]: 22.3 µM (inactive) | GI50 [49]: 11.5 µM (inactive) | GI50 [50]: 20.9 µM (inactive) | GI50 [51]: 23.3 µM (inactive) | GI50 [52]: 23.6 µM (inactive) | GI50 [53]: 35.6 µM (inactive) | GI50 [54]: 17.3 µM (inactive) | GI50 [55]: 14.2 µM (inactive) | GI50 [56]: 16.6 µM (inactive) | GI50 [57]: 30.8 µM (inactive) | GI50 [58]: 24.5 µM (inactive)

CCOC(=O)N/N=C(/N)Cc1ccccc1
GI50 [1]: > 100 µM (inactive) | GI50 [2]: > 100 µM (inactive) | GI50 [3]: > 100 µM (inactive) | GI50 [4]: > 100 µM (inactive) | GI50 [5]: > 100 µM (inactive) | GI50 [6]: > 100 µM (inactive) | GI50 [7]: > 100 µM (inactive) | GI50 [8]: > 100 µM (inactive) | GI50 [9]: > 100 µM | GI50 [10]: > 100 µM (inactive) | GI50 [11]: > 100 µM (inactive) | GI50 [13]: > 100 µM (inactive) | GI50 [14]: > 100 µM (inactive) | GI50 [15]: > 100 µM (inactive) | GI50 [16]: > 100 µM (inactive) | GI50 [17]: > 100 µM (inactive) | GI50 [18]: > 100 µM (inactive) | GI50 [19]: > 100 µM (inactive) | GI50 [20]: > 100 µM (inactive) | GI50 [21]: > 100 µM (inactive) | GI50 [23]: > 100 µM (inactive) | GI50 [24]: > 100 µM (inactive) | GI50 [25]: > 100 µM (inactive) | GI50 [26]: > 100 µM (inactive) | GI50 [59]: > 100 µM (inactive) | GI50 [27]: > 100 µM (inactive) | GI50 [28]: > 100 µM (inactive) | GI50 [29]: > 100 µM (inactive) | GI50 [30]: > 100 µM (inactive) | GI50 [31]: > 100 µM (inactive) | GI50 [32]: > 100 µM (inactive) | GI50 [33]: > 100 µM (inactive) | GI50 [34]: > 100 µM (inactive) | GI50 [35]: > 100 µM (inactive) | GI50 [36]: > 100 µM (inactive) | GI50 [37]: > 100 µM (inactive) | GI50 [38]: > 100 µM (inactive) | GI50 [39]: > 100 µM (inactive) | GI50 [40]: > 100 µM (inactive) | GI50 [42]: > 10 µM (inactive) | GI50 [43]: > 100 µM (inactive) | GI50 [44]: > 100 µM (inactive) | GI50 [45]: > 100 µM (inactive) | GI50 [46]: > 100 µM (inactive) | GI50 [47]: > 100 µM (inactive) | GI50 [49]: > 100 µM (inactive) | GI50 [50]: > 100 µM (inactive) | GI50 [51]: > 100 µM (inactive) | GI50 [53]: > 100 µM (inactive) | GI50 [54]: > 100 µM (inactive) | GI50 [55]: > 100 µM (inactive) | GI50 [56]: > 100 µM (inactive) | GI50 [57]: > 100 µM (inactive) | GI50 [58]: > 100 µM (inactive)
